Results as given in patent publication US20070104714A1, “Composition and method for the treatment of cancer and other physiologic conditins based on modulation of the ppar-gamma pathway and her-kinase axis” (CEDARS-SINAI MEDICAL CENTER, priority 2003, published 2007).
Values belong to the compound of their own block, whether it stands above or below them.

Legend:
[1] = system: PPARγ1; assay: PPARγ protein (Western blot) and mRNA (RT-PCR) in treated prostate cancer xenografts; assay type: in vivo, nude mice; details: for PPARγ protein by immunoblot in xenograft lysates of combination study: 22 days of treatment
Experimental: (§1) Total RNA was extracted from prostate tumors or the LNCaP cell line using the TRIZOL reagent (obtained from Invitrogen Corp.; San Diego, Calif.). Samples were heated at 95° C. for 3 minutes and snap-cooled before proceeding with DNase I treatment to prevent RNA/DNA hybridization. DNase I (obtained from Ambion; Austin, Tex.) was used to remove any genomic DNA that might interfere with the reaction. Samples were treated with DNase I for 1 hour at 37° C. The RNA yield was quantified spectrometrically.
Total RNA was reverse-transcribed (RT) into cDNA and polymerase chain reaction (PCR) was performed in the same reaction using a real-time TAQman One-Step RT-PCR Master Mix Reagents Kit (obtained from Applied Biosystems; Foster City, Calif.). The sequences of the primer/probe sets used for this analysis are as follows. F and R are the forward and reverse primers, respectively, and P is the fluorescent-labeled probe.
The real-time one step RT-PCR cycling conditions for all primer sets were as follows: 30 min at 48° C. for RT step; 10 min at 95° C. for […] Gold Activation; and 40 cycles for cDNA denaturing (95° C., 15 s), and annealing/elongation (60° C. for 1 min) steps. PCR reactions for each template were done in triplicate using 1 μg of total RNA per sample. Each gene-specific primer pair was tested on standard 384-well plates. Standard curves were constructed using 10-1000 ng of total RNA prepared from the CWRSA6 tumor line.
The comparative CT method (Perkin Elmer Applied Biosystems; Foster City, Calif.) was used to determine relative quantification of gene expression for each gene compared with the β-actin control. First, the CT values from the β-actin reactions were averaged for each triplicate. Next, the CT values from the gene-of-interest reactions were averaged. The gene-of-interest average was […] the β-actin average to take into account the variability of total RNA.
(§2) Immunoblots were performed as described in Towbin H., “Electrophoretic Transfer of Proteins from Polyacrylamide Gels to Nitrocellulose Sheets: Procedure and Some Applications,” Proc. Natl. Acad. Sci. USA, Vol. 76, No. 9 p. 4350-4354 (1979) using aliquots of tumor lysates (100 μg per lane) or lysates from LNCaP cells (100 μg per lane). Protein concentration was determined with a Bradford Assay (obtained from Bio-Rad Inc.; Hercules, Calif.). The lysates were separated on 10% SDS polyacrylamide gels and transferred onto nitrocellulose filters. […]

[2] = Toxicity and weight loss in xenograft-bearing treated animals; assay type: in vivo, nude mice; details: for Lethal toxicity or significant weight loss: combination study, CWRSA6, R-etodolac 200 mg/kg daily, 2C4 20 mg/kg 2X/wk, three weeks
[3] = system: cyclooxygenase (COX); details: literature (Adachi et al.; Demerson et al.); cited from earlier work
[4] = system: CD36 expression in THP-1 cells; assay: TPA-induced CD36 scavenger receptor expression in THP-1 cells by flow cytometry; assay type: cell-based, human; details: 200 μM, TPA 40 ng/ml
Experimental: Prostate carcinoma cell lines, 22Rv1 and LNCaP, and human acute monocytic leukemia (THP-1) cells were obtained from the American Type Culture Collection (Rockville, Md.) and maintained in RPMI 1640 medium supplemented with 10% FBS, 100 μg/ml penicillin and 100 μg/ml streptomycin (obtained from GIBCO; Grand Island, N.Y.). […] Second, the combination of PPARγ transactivation, together with protein kinase C activation by a phorbol ester, has been reported to induce the scavenger receptor CD36 in macrophages (Han and […], 2002). CD36 is documented as a PPARγ-regulated gene (Tontonoz et al., 1998). […] THP-1 cells were treated for 5 days with 200 μM etodolac (racemic mixture) and 20 μM troglitazone in the presence or absence of 40 ng/ml phorbol ester (TPA) for 48 hours. Cells were fixed and stained with unconjugated anti-CD36 and FITC conjugated anti-IgG and analyzed by flow cytometry. A population of 10,000 viable cells was analyzed for each treatment.

[5] = system: HER-kinase receptors; assay: HER-kinase receptor mRNA expression in treated xenografts (RT-PCR); assay type: in vivo, nude mice; details: data not shown
Experimental: as §1, with “spectrometrically. […]” for “spectrometrically.”
(§3) The mRNA expression of cyclin D1 (Takayasu, H. et al., “Frequent deletions and mutations of the beta-catenin gene are associated with overexpression of cyclin D1 and fibronectin and poorly differentiated histology in childhood hepatoblastoma,” Clin. Cancer Res., Vol. 7, p. 901-908 (2001)) and the HER-kinase receptors were analyzed using primer sets as described in Agus, D. B. et al, “Targeting ligand activated ErbB2 signaling inhibits breast and prostate tumor growth,” Cancer Cell, Vol. 2, p. […]
(§4) The comparative CT method (Perkin Elmer Applied Biosystems; Foster City, Calif.) was used to determine relative quantification of gene expression for each gene compared with the β-actin control. […]

[6] = system: CWRSA6 human prostate cancer xenografts; details: 200 mg/kg o.g. daily; p=0.002
[7] = system: phospho-p44/42 MAP kinase; assay: Phospho-MAP kinase (p44/42) Western blot in CWRSA6 xenografts, time course; assay type: in vivo, nude mice
Experimental: Immunoblots were performed as described in Towbin H., “Electrophoretic Transfer of Proteins from Polyacrylamide Gels to Nitrocellulose Sheets: Procedure and Some Applications,” Proc. Natl. Acad. Sci. USA, Vol. 76, No. 9 p. 4350-4354 (1979) using aliquots of tumor lysates (100 μg per lane) or lysates from LNCaP cells (100 μg per lane). Protein concentration was determined with a Bradford Assay (obtained from Bio-Rad Inc.; Hercules, Calif.). The lysates were separated on 10% SDS polyacrylamide gels and transferred onto nitrocellulose filters. The membranes were incubated overnight at 4° C. with antibodies against PPARγ (Sc-7273 obtained from Santa Cruz Inc.; Santa Cruz, Calif.), ERK1 (Sc-94 obtained from Santa Cruz Inc.; Santa Cruz, Calif.), and phospho-p44/42 MAP kinase (9101S obtained from Cell Signal; Beverly, Mass.), and cyclin D1 (554180 obtained from BD Pharmingen; San Diego, Calif.) in parallel with anti-β-actin antibodies (A2066 obtained from Sigma; St. Louis, Mo.) and washed well before incubating with the appropriate α-mouse or α-rabbit secondary antibody conjugated with horseradish peroxidase (obtained from Amersham Biosciences, UK).

[8] = system: cyclin D1 expression in LNCaP cells; assay: Cyclin D1 mRNA (RT-PCR) and protein (Western blot) expression in LNCaP cells; assay type: cell-based, human
Experimental: as §1, with “spectrometrically. […]” for “spectrometrically.”
as §3, §4
The 22Rv1 cells were seeded into 100 mm dishes and allowed to attach for a period of 18 hours. […] MAP-kinase activation was assessed by Western blot analysis using methods described above. […]

[9] = system: NIH3T3-PPARγ cells; assay: Neutral lipid accumulation (Oil Red O) in NIH3T3 cells expressing recombinant PPARγ; assay type: cell-based, mouse
Experimental: Third, PPARγ is accepted as a master regulator of adipocyte differentiation. […] NIH3T3 cells that stably overexpress retrovirally expressed recombinant PPARγ were obtained from Dr. Ronald Evans (Salk Institute, La Jolla, Calif.). […] NIH3T3 cells stably expressing recombinant PPARγ (obtained from Dr. Ronald Evans of the Jonas Salk Institute; San Diego, Calif.) were maintained in DMEM supplemented with 10% BCS, 100 μg/ml penicillin and 100 μg/ml streptomycin (obtained from GIBCO; Grand Island, N.Y.). The cells were treated for seven days with the indicated compounds and concentrations and stained for neutral lipids with Oil Red O as described by Green and Kehinde (“Sublines of mouse 3T3 cells that accumulate lipid,” Cell, Vol. 1, p. 113-116 (1974)).

[10] = system: LuCaP-35 human prostate cancer xenografts; assay: Tumor growth of androgen-dependent LuCaP-35 prostate cancer xenografts in nude mice; assay type: in vivo; details: 200 mg/kg o.g. daily; p=0.0103
[11] = system: phospho-MAP kinase in 22Rv1 cells; assay: Phospho-MAP kinase activation Western blot in 22Rv1 prostate cancer cells; assay type: cell-based, human; details: 500 μM, within 20 minutes of addition, then sustained
Experimental: as §2
The 22Rv1 cells were seeded into 100 mm dishes and allowed to attach for a period of 18 hours. […] MAP-kinase activation was assessed by Western blot analysis using methods described above. […] Cyclin D1 protein and mRNA expression were assessed by western blot and a real-time quantitative RT-PCR assay as previously described. […]

[12] = biological target: T1, PPARγ (Homo sapiens, UniProt P37231); assay: PPARγ reporter (AOx)3-TK-Luc transient transfection luciferase assay in RAW 267.4 cells; assay type: cell-based; details: for PPRE-driven reporter gene expression / PPARγ transactivation: varying concentrations, with recombinant PPARγ
T1 construct: expressed in transfected cells; host or cells: RAW 267.4 mouse macrophages
T1 sequence (P37231 1-505): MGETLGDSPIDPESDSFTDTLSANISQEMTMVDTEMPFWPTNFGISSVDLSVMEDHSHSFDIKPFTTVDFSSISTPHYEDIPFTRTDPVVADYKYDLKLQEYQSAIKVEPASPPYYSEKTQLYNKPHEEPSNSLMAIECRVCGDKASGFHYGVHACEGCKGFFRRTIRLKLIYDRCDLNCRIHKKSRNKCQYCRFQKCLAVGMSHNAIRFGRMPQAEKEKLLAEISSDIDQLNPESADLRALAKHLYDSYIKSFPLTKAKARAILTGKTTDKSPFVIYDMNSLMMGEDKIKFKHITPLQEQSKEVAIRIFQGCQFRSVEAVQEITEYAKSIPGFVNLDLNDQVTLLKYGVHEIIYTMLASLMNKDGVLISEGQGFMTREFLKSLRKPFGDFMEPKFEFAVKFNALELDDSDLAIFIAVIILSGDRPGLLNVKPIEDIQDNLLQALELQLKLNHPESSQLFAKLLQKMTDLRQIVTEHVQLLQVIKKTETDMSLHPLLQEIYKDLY
Experimental: […] cells were maintained at 37° C. and 5% CO2 in Dulbecco's modified eagle medium (DMEM) with high glucose (obtained from GIBCO; Grand Island, N.Y.) supplemented with 10% fetal bovine serum (FBS), 100 μg/ml penicillin and 100 μg/ml streptomycin.
For transfection, cells were grown in DMEM with 10% FBS for at least 24 hours prior to transfection. Transient transfections were performed in 12-well plates for at least 24 hours prior to transfection. At approximately 50% confluence, cells were transfected using the FuGENE transfection reagent (obtained from Roche Diagnostics GmbH; Mannheim, Germany) according to the manufacturer's instruction with 0.5 μg of reporter plasmid (AOx)3-TK-Luc, 0.1 to 0.2 μg of control plasmid pCMXμgal, 0.1 μg PPARγ expression plasmid and carrier DNA for a total of 1 μg DNA per well. After 16 hours, the cells were washed and fresh medium containing the appropriate amount of drugs, prepared in 0.5% DMSO, was added to the cells for another 24 hours. The cells were treated with either vehicle alone (DMSO), indomethacin, rosiglitazone or varying concentrations of R- or S-etodolac.
For luciferase assays, cells were lysed in potassium phosphate buffer containing 1% TRITON X-100 (obtained from Rohm and Haas Co.; Philadelphia, Pa.) and light emission was detected in the presence of luciferin using a microtiter plate luminometer. Luciferase values were normalized for variations in transfection efficiency using a β-galactosidase internal control. The results are expressed as relative luciferase units (RLU). The luciferase activity values represent the mean of a minimum of three independent transfections performed in triplicate.
The 22Rv1 cells were seeded into 100 mm dishes and allowed to attach for a period of 18 hours. The media was then replaced with phenol red-free and serum-free RPMI 1640, with 100 μg/ml penicillin and 100 μg/ml streptomycin ±R-etodolac for the indicated times. MAP-kinase activation was assessed by Western blot analysis using methods described above. LNCaP cells were treated with R-etodolac at 200, 400, and 600 μM concentrations for 18 Hours. Total protein or RNA was isolated using methods as described previously. Cyclin D1 protein and mRNA expression were assessed by western blot and a real-time quantitative RT-PCR assay as previously described. This transactivation function is mediated only in the presence of recombinant PPARγ.

Compound: 2C4: Recombinant humanized HER-2 specific monoclonal antibody that inhibits ligand-induced heterodimerization of ErbB2
- PPARγ protein by immunoblot in xenograft lysates of combination study ([1]; CWRSA6 xenografts): expressed PPARγ
- Lethal toxicity or significant weight loss [2]: no lethal toxicity or significant weight loss

Compound: CCc1cccc2c3c([nH]c12)[C@@](CC)(CC(=O)O)OCC3 [R-etodolac]
- COX inhibitory activity [3]: lacks COX inhibitory activity
- PPARγ protein in tumors vs vehicle treated control ([1]; CWRSA6 and LuCaP-35 xenografts, two to three weeks of treatment, 200 mg/kg): completely eliminated
- PPARγ receptor level in time course experiment ([1]; CWRSA6 xenografts, 24 to 72 hours post treatment): upregulation of the PPARγ receptor in the majority of the animals
- PPARγ protein by immunoblot in xenograft lysates of combination study ([1]; CWRSA6 xenografts): complete ablation
- CD36 expression as downstream indicator of PPARγ activation [4]: equivalent potency
- mRNA expression of the HER-kinase receptors [5]: did not alter
- Tumor growth inhibition relative to control-treated animals [6]: 66%
- Phosphorylated p44/42 levels ([7]; 24 hours post treatment, 200 mg/kg): sharp increase
- Total MAP kinase expression ([7]; time course): No difference
- MAP kinase activation, rest of time course ([7]; up to 72 hours): low level of sustained activation
- Cyclin D1 protein expression ([8]; 18 hours, 200, 400 and 600 μM): downregulation
- Cyclin D1 mRNA expression ([8]; 18 hours, 200 and 400 μM): downregulation
- Accumulation of neutral lipids and morphological changes (Oil Red O) ([9]; 1 μM, seven days): displayed accumulation of neutral lipids
- Lipid uptake (Oil Red O) ([9]; 500 μM, seven days): significantly more pronounced
- Lipid uptake in NIH3T3 cells transfected with the empty retroviral vector ([9]; empty vector control cells, data not shown): did not demonstrate the lipid uptake
- Tumor growth inhibition relative to control-treated animals [10]: 46%
- Phospho-MAP kinase activation [11]: transient peak
- Transactivation of PPARγ reporter (fold-induction of luciferase expression) ([12]; 100 μM, relative to no drug control, 24 hours): 13 fold
- PPRE-driven reporter gene expression / PPARγ transactivation [12]: enhances reporter gene expression in a dose dependent manner
- Lethal toxicity or weight loss (greater than 10% body weight) ([2]; 200 mg/kg o.g. daily, single agent study): no lethal toxicity or weight loss
- Lethal toxicity or significant weight loss [2]: no lethal toxicity or significant weight loss

Compound: CCc1cccc2c3c([nH]c12)[C@](CC)(CC(=O)O)OCC3 [S-etodolac]
- PPRE-driven reporter gene expression / PPARγ transactivation [12]: can also transactivate PPARγ but to significantly lower levels

- PPARγ transactivation compared with 100 μM R-etodolac ([12]; 10 μM): comparable
Compound: COc1ccc2c(c1)c(CC(=O)O)c(C)n2C(=O)c1ccc(Cl)cc1 [indomethacin]
